We go through three substances from patent US9234242B2, “Methods for treating depression using NCAM peptide mimetics” (THE BOARD OF THE TRUSTEES OF THE LELAND STANFORD JUNIOR …, priority 2005, dated 2016).

The subject of assay [1] is Rodents. The assay is described as follows: Forced swim test (FST) after microinjection. The assay is classed as in vivo, rats. The conditions noted are these: microinjection (intracerebroventricular), versus controls. The source says: (§1) In another embodiment, the present invention provides methods for altering the behavioral profiles of rats by injecting the rats with FGF2, an NCAM peptide mimetic, and a peptide inhibitor of FGF receptors. Both FGF2 and the NCAM peptide mimetic have antidepressant-like effects in the forced swim test when injected intracerebroventricularly. […] In one embodiment of the invention, ligands that activate FGF receptors are used for their antidepressant effects in the therapeutic treatment of individuals with MDD.
(§2) This is indicative of less depression-like behavior in FGF2 animals.
(§3) Again, this is an index of less depression-like behavior. This is also in the same direction as the FGF2 data, consistent with the fact that both FGF2 and NCAM interact with the FGF receptor.
(§4) These observations are nevertheless consistent with the conclusions drawn from the microinjection studies above.

The test system of assay [2] is Rodents. The assay is described as follows: Elevated plus maze (EPM) after microinjection. The conditions noted are these: microinjection (intracerebroventricular), versus controls. In kind it is in vivo, rats.
Text: as §1, §2, §3, §4

Another assay has as its system Sprague-Dawley rats. The assay is described as follows: Morris water maze learning and memory test in adults after early postnatal injection. The assay is classed as in vivo. The conditions noted are these: 20 ng/g s.c. the day after birth, tested as adults; vehicle-injected rats 25 seconds. As for the experimental part:
(§5) Sprague-Dawley rats were injected with either vehicle or FGF2 (20 ng/g, s.c.) the day after birth and sacrificed after Morris water maze testing as adults. We assessed changes in gene expression using both a candidate approach and a gene discovery approach with laser-capture microdissection of the dentate gyrus followed by microarray analyses.

For assay [3], the system named is genes associated with neural plasticity. The assay is described as follows: Long-term changes in hippocampal gene expression (histochemical and RNA expression assays). The assay is classed as in vivo. The conditions noted are these: adult rats, 20 ng/g s.c. the day after birth. The procedure:
as §5

A further assay concerns rats. The assay is described as follows: Elevated plus-maze (EPM) and light-dark (LD) anxiety test after chronic administration. In kind it is in vivo. The conditions noted are these: 5 ng/g i.p. every 48 hours for 3 weeks. As for the experimental part:
Anxiety disorders have a high comorbidity with other neuropsychiatric disorders including Major Depression (MD). […] Rats were placed into “high anxiety” (LR) or “low anxiety” (HR) groups based on their behavior in a variety of motor and behavioral tests. Both groups of animals were administered either FGF2 (5 ng/g) or vehicle by intraperitoneal injection every 48 hours for 3 weeks. One day after the last FGF2 injection, all animals were tested in the elevated plus-maze (EPM) and light-dark (LD) anxiety test.
The apparatus for the EPM test is constructed of black Plexiglass with […] (70 cm from the floor, 45 cm long, and 12 cm wide). Illumination is provided by a 40-watt desk lamp facing a wall and placed behind one of the closed arms. The scientists put the animal inside the system. Animals that are less anxious spend more time in the open arms whereas animals that are more anxious spend less time in the open arms.
The LD test is conducted in a 30×60×30-cm Plexiglas shuttle box with a translucent cover. Each box is divided into two equal-sized compartments by a wall with a 12 cm-wide open door. One compartment is painted white and brightly illuminated, and the other is painted black with very dim light. The time each rat spends in each compartment is monitored by rows of five photocells located 2.5 cm above the grid floor of each compartment. […]

In assay [4] the test system is FGFR2 and FGFR3 exon IIIc:IIIb splice variant ratio. The assay is described as follows: Real time RT-PCR of exon IIIc:IIIb splice variant ratio in frontal cortex, chronic unpredictable stress. The assay is classed as in vivo, rats. The conditions noted are these: 5 ng/g i.p. every 48 hours for three weeks. As for the experimental part:
Half of the rats (n=12) were administered vehicle (0.1M PBS with 100 μg/mL bovine serum albumin), and the other half (n=12) were administered human recombinant FGF2 dissolved in vehicle in 5 ng/g dosages (Sigma, St. Louis, Mo.) every 48 hours for three weeks. All treatments were injected intra-peritoneally. During the same three week period as the FGF2 treatments, the vehicle group was either handled (n=6) or exposed to CUS (n=6). Likewise, the FGF2 injected group was either handled (n=6) or exposed to CUS (n=6). […]
Gross dissections were performed on the frontal cortex of all brains. […] Using the Bioanalyzer's concentration readings, the samples were normalized to 25 ng/μL of total RNA per subject and stored at −80° C.
cDNA was synthesized using the iScript cDNA Synthesis Kit (Bio-Rad, Hercules, Calif.). […] The double-stranded cDNA solutions were then analyzed for quality and concentration using Invitrogen's Quant-iT PicoGreen dsDNA kit. […] The fluorescently labeled samples were analyzed with a 1420 Victor^2 Multilabel Counter (EG&G Wallac, Wellesley, Mass.) using the basic Fluorescein protocol. […]
Sequences for rat FGFR2 and FGFR3 exons were obtained from NCBI's Entrez Gene database (www.ncbi.nlm.nih.gov) and the Ensembl-Rat gene database (www.ensembl.org). […] FGFR2 and FGFR3 exon sequences were analyzed for secondary structure using the Mfold nucleic acid folding web server. […]

In the case of “NCAM: NCAM (FGL peptide), amino acid sequence=EVYVVAENQQGKSKA (SEQ ID NO:34); interacts with the FGF receptor (NCAM (FGL peptide))”, the “immobility in the FST” value in the assay on Rodents [1] is reported as “less immobility”. Further, in the assay with Rodents [2], the “time in the center quadrant of the EPM” value was “significantly less time”, the “time in the closed arms of the EPM” value is reported as “more time (although not significantly more time)” and the “time in the open arms of the EPM” value was “less time”.
On to “FGF system peptide inhibitor: FGF system peptide inhibitor, amino acid sequence=HFKDPKRLY; SEQ ID NO:35 (FGF system peptide inhibitor) [reference compound]”, for which, in the assay on Rodents [1], the “climbing in the FST” value is “significantly less climbing”, the “immobility in the FST” value is reported as “more immobility” and the “swimming in the FST” value is on record as “less swimming”. In addition, in the assay on Rodents [2], the “time in the center quadrant of the EPM” value was “significantly more time”, the “time in the closed arms of the EPM” value is “less time” and the “time in the open arms of the EPM” value is “equal time”.
For “FGF2: FGF receptor ligand; human recombinant FGF2 (Sigma) in Example 6”, in the assay on Rodents [1], the “immobility in the FST” value is recorded as “less immobility” and the “swimming in the FST” value is recorded as “more swimming”. For the same substance, in the assay with Rodents [2], the “time in the closed arms of the EPM” value is “significantly more time” and the “time in the open arms of the EPM” value was “less time”. Also, the “time on average to find a hidden platform in Morris Water maze test” value with Sprague-Dawley rats was 20 s. In assay [3], the “expression of CCK” value is on record as “increased”, the “expression of GAP-43” value was “increased”, the “expression of NCAM” value is “decreased” and the “expression of Rgs4” value was “increased”. Further, in assay [3], the “expression of SST” value is listed as “increased”, the “expression of Vgf” value is listed as “increased” and the “expression of trkB” value is listed as “increased”. The “anxiety-reducing effects in innately more anxious (LR) rats” value in the assay on rats (LR versus HR rats) is given as “clearly more pronounced”. Besides, in the assay with rats (time in the light compartment (FIG. 9)), the “anxiety versus animals who receive vehicle” value was “less anxious”. The “effect on the magnitude of ratio changes caused by stress” value in assay [4] is given as “nor did it significantly affect”. The “effect on the IIIc:IIIb ratio in the NS or S group” value in assay [4] (P>0.1) is on record as “did not alter the IIIc:IIIb ratio significantly”.
